Laboratory results as given in ChEMBL document CHEMBL5360639, “Cannabidiol Analogue CIAC001 for the Treatment of Morphine-Induced Addiction by Targeting PKM2” (J Med Chem, 2023).

Experiments:
[1] = Cytotoxicity against mouse BV-2 cells assessed as reduction in cell viability by crystal violet staining based assay; assay type: toxicity
[2] = Therapeutic index, ratio of IC50 for cytotoxicty against mouse BV-2 cells assessed as reduction in cell viability by crystal violet staining based assay to IC50 for nti-neuroinflammatory activity in mouse BV-2 cells assessed as inhibition of LPS-induced NO production; assay type: toxicity; conditions: read-out: Ratio IC50
[3] = tested on: BV-2; experiment: Anti-neuroinflammatory activity in mouse BV-2 cells assessed as inhibition of LPS-induced NO production incubated for 24 hrs by microplate reader analysis; assay type: functional, cell-based; conditions: BV-2, 24 h

Row | Structure (SMILES) | IC50 [1] [µM] | selectivity ratio [2] | IC50 [3] [µM]
1 | C=C(C)[C@@H]1CCC(C)=C[C@H]1c1c(OCC)cc(CCCCC)cc1OCC | > 200 |  | 
2 | C=C(C)[C@@H]1CCC(C)=C[C@H]1c1c(O)cc(CCCCCC)cc1O | 19 | 9 | 2.1
3 | C=C(C)[C@@H]1CCC(C)=C[C@H]1c1c(O)cc(CCCCCCCCCCCC)cc1O | > 200 |  | 
4 | C=C(C)[C@@H]1CCC(C)=C[C@H]1c1c(O)cc(C(C)n2cccc2)cc1O (some centres undefined) | 155 | 6.5 | 23.9
5 | C=C(C)[C@@H]1CCC(C)=C[C@H]1c1c(O)cc(C(C)n2ccnn2)cc1O (some centres undefined) | 77.1 | 2.1 | 35.9
6 | C=C(C)[C@@H]1CCC(C)=C[C@H]1c1c(O)cc(CCCCCCCC)cc1O | 26.2 | 0.2 | 
7 | C=C(C)[C@@H]1CCC(C)=C[C@H]1c1c(O)cc(CC)cc1O | 22.6 | 9.1 | 2.5
8 | C=CCOc1cc(CCCCC)cc(OCC=C)c1[C@@H]1C=C(C)CC[C@H]1C(=C)C | > 200 |  | 
9 | C=C(C)[C@@H]1CCC(C)=C[C@H]1c1c(O)cc(CCCCC)cc1OCCC | > 200 |  | 
10 | C=C(C)[C@@H]1CCC(C)=C[C@H]1c1c(O)cc(CCC)cc1O [CANNABIDIVARIN] | 18.3 | 3.5 | 5.3
11 | C=C(C)[C@@H]1CCC(C)=C[C@H]1c1c(O)cc(CCCCC)cc1OC | 58.2 | 1.6 | 37.2
